Test results: US6358937B1, “Method for the treatment of cancer using phosphatidic acid-comprising compositions” (Modus Biological Membranes Ltd., priority 1996, dated 2002)

Assays:
Format in all cases: cell-based, murine
P388/MET = assay: Growth rate of P388/MET resistant cells; conditions: P388/MET grown in the presence of 10^−8 drug, no lipid treatment
Experimental: (§1) P388/MET and P388/DOX resistant cell lines were developed as described in Example 7 above. Non-treated P388 cells and resistant cell lines of these cells were grown in the presence and absence of 10^−8M of MET or DOX as indicated in Table 5 below.

P388/DOX = assay: Growth rate of P388/DOX resistant cells; conditions: P388/DOX grown in the presence of 10^−8 drug, no lipid treatment
Experimental: as §1

P388 (unadapted) = assay: Growth rate of unadapted P388 cells; conditions: unadapted P388 grown in the presence of 10^−8M drug; relative to unadapted P388 = 100
Experimental: as §1

Compound | relative growth rate (P388/MET) | relative growth rate (P388/DOX) | relative growth rate (P388 (unadapted))
COc1cccc2c1C(=O)c1c(O)c3c(c(O)c1C2=O)C[C@@](O)(C(=O)CO)C[C@@H]3O[C@H]1C[C@H](N)[C@H](O)[C@H](C)O1 [DOX, doxorubicine] | 95 ± 5 | 95 ± 5 | 10 ± 5
CN(Cc1cnc2nc(N)nc(N)c2n1)c1ccc(C(=O)N[C@@H](CCC(=O)O)C(=O)O)cc1 [MET, methotroxeate] | 95 ± 5 | 93 ± 5 | 10 ± 5
